Test results taken from US9714239B2, “N-phenyl-lactam derivatives capable of stimulating neurogenesis and their use in the treatment of neurological disorders” (Hoffmann-La Roche Inc., priority 2014, dated 2017).

These molecules were tested on human embryonic stem cell derived neural stem cells (NSCs) (assay: Neurogenesis assay: neural stem cell proliferation assay). Conditions: 96 h, compound concentration at which 150% activity of control (100%) is reached, increase in cells based on ATP levels (CellTiterGlo), 4 days incubation, dose response 8 μM to 8 nM.
Method: Neural Stem Cell Proliferation Assay
Neurogenic properties of small molecules are determined based on the proliferation of human embryonic stem cell derived neural stem cells (NSCs) which were derived via a dual smad inhibition as previously described (Chambers, S. M., et al., Highly efficient neural conversion of human ES and iPS cells by dual inhibition of SMAD signaling, Nature biotechnology, 2009 27(3): p. 275-80.).
Compounds response is measured by the increase in cells based on ATP levels (Promega:CellTiterGlo®) after an incubation period of 4 days. NSCs are thawed and expanded over 3 passages. On the 14th day, NSCs are seeded in Polyornithin/Laminin coated 384 well plates at a cell density of 21,000 cells/cm^2 in a media volume of 38 μl.
4 hours after cell seeding, compound solutions are added at a volume of 2 μl. Stock solutions of the compounds (water, 5% DMSO) are diluted to obtain a dose response (11 points, dilution factor is 2), ranging from 8 μM to 8 nM. Controls are run to consistently determine the neurogenic properties of the cells:
Negative (neutral) control is cell culture Media (final DMSO concentration: 0.25%).
1. cell culture Media+100 ng/ml FGF2 (final DMSO concentration: 0.1%)
2. cell culture Media+20 ng/ml EGF (final DMSO concentration: 0.1%)
3. cell culture Media+100 ng/ml Wnt3a (final DMSO concentration: 0.1%)
After 4 days incubation at 37° C., 5% CO2, the amount of ATP per well is quantified. The ATP concentration is proportional to the cell number. ATP is quantified by using the Promega CellTiterGlo® kit. The CellTiterGlo® reagents contain a cell lysis buffer, a thermo stable luciferase (UltraGlo™ recombinant luciferase), magnesium and luciferin. Luciferin reacts with ATP producing oxyluciferin, AMP and light. The luminescence signal is proportional to the ATP content.
The value of negative (neutral) control is determined for each assay plate by taking the average of 16 negative control wells. The neurogenic compound response is calculated for each compound as (compound/Negative Control)*100. The values of EC150 from the dose response curve are determined for each test compound. The EC150 is the compound concentration at which 150% activity of control (100%) is reached.

Compound	EC (150% of control) [µM]
COc1cc(N2CCN(Cc3ccccc3C(F)(F)F)C2=O)ccc1-c1ccncc1 [Example 54, 1-[3-Methoxy-4-(4-pyridyl)phenyl]-3-[[2-(trifluoromethyl)phenyl]methyl]imidazolidin-2-one]	0.0351
COc1cc(N2CCN(Cc3ccncc3)C2=O)ccc1-c1ccncc1 [Example 55, 1-[3-Methoxy-4-(4-pyridyl)phenyl]-3-(4-pyridylmethyl)imidazolidin-2-one]	0.377
COc1cc(N2CCC(c3cccc(C(F)(F)F)c3)C2=O)ccc1-c1cnco1 (centres unmarked) [Example 56, 1-[3-Methoxy-4-(1,3-oxazol-5-yl)phenyl]-3-[3-(trifluoromethyl)phenyl]pyrrolidin-2-one]	1.86
O=C1C(c2ccccc2F)CCN1c1ccc(-c2cnco2)cc1 (centres unmarked) [Example 57, 3-(2-Fluorophenyl)-1-[4-(1,3-oxazol-5-yl)phenyl]pyrrolidin-2-one]	0.525
COc1cc(N2CCC(c3ccccc3F)C2=O)ccc1-c1cnco1 (centres unmarked) [Example 58, 3-(2-Fluorophenyl)-1-[3-methoxy-4-(1,3-oxazol-5-yl)phenyl]pyrrolidin-2-one]	0.23
COc1cccc(CN2CCN(c3ccc(-c4cnco4)cc3)C2=O)c1 [Example 59, 1-[(3-Methoxyphenyl)methyl]-3-[4-(1,3-oxazol-5-yl)phenyl]imidazolidin-2-one]	0.122
O=C1C(c2cccc(F)c2)CCN1c1ccc(-c2cnco2)cc1 (centres unmarked) [Example 60, 3-(3-Fluorophenyl)-1-[4-(1,3-oxazol-5-yl)phenyl]pyrrolidin-2-one]	0.605
COc1cc(N2CCC(c3cccc(F)c3)C2=O)ccc1-c1cnco1 (centres unmarked) [Example 61, 3-(3-Fluorophenyl)-1-[3-methoxy-4-(1,3-oxazol-5-yl)phenyl]pyrrolidin-2-one]	0.262
COc1cc(N2CCN(Cc3ccncc3)C2=O)ccc1-c1cn[nH]c1 [Example 62, 1-[3-Methoxy-4-(1H-pyrazol-4-yl)phenyl]-3-(4-pyridylmethyl)imidazolidin-2-one]	0.042
COc1cc(N2CCN(Cc3ccccn3)C2=O)ccc1-c1cn[nH]c1 [Example 63, 1-[3-Methoxy-4-(1H-pyrazol-4-yl)phenyl]-3-(2-pyridylmethyl)imidazolidin-2-one]	0.255
COc1cc(N2CCN(CC(C)c3ccccc3)C2=O)ccc1-c1cn[nH]c1 (centres unmarked) [Example 64, 1-[3-Methoxy-4-(1H-pyrazol-4-yl)phenyl]-3-(2-phenylpropyl)imidazolidin-2-one]	0.387
COc1cc(N2CCN(Cc3cccc(C)c3)C2=O)ccc1-c1ccncc1 [Example 65, 1-[3-Methoxy-4-(4-pyridyl)phenyl]-3-(m-tolylmethyl)imidazolidin-2-one]	0.0298
COc1cc(N2CCN(Cc3cccnc3)C2=O)ccc1-c1ccncc1 [Example 66, 1-[3-Methoxy-4-(4-pyridyl)phenyl]-3-(3-pyridylmethyl)imidazolidin-2-one]	0.4
COc1ccccc1CN1CCN(c2ccc(-c3cnco3)c(OC)c2)C1=O [Example 67, 1-[3-Methoxy-4-(1,3-oxazol-5-yl)phenyl]-3-[(2-methoxyphenyl)methyl]imidazolidin-2-one]	0.702
COc1cccc(CN2CCN(c3ccc(-c4cnco4)c(OC)c3)C2=O)c1 [Example 68, 1-[3-Methoxy-4-(1,3-oxazol-5-yl)phenyl]-3-[(3-methoxyphenyl)methyl]imidazolidin-2-one]	0.316
COc1cc(N2CCN(Cc3ccccc3Cl)C2=O)ccc1-c1cnco1 [Example 69, 1-[(2-Chlorophenyl)methyl]-3-[3-methoxy-4-(1,3-oxazol-5-yl)phenyl]imidazolidin-2-one]	2.24
COc1cccc(C2CCN(c3ccc(-c4ccncc4)c(OC)c3)C2=O)c1 (centres unmarked) [Example 70, 3-(3-Methoxyphenyl)-1-(3-methoxy-4-pyridin-4-ylphenyl)pyrrolidin-2-one]	0.0613
